Data on 6 molecules can be found in PMC7460559 (International Journal of Molecular Sciences, 2020).

Converted amounts (≈) assume the structure as drawn. Residues, ends and D or L forms follow the SMILES beside them. No end group written: not given here. Where only a bound is given, the exact number is not on record here.

In one series the test system is S. aureus CCARM 3089. Kind of series: MIC assay, drug-resistant strain. The format is cell-based. The conditions noted are these: Staphylococcus aureus, CCARM3089, peptides in DMEM supplemented with 10% FBS. An excerpt:
(§1) Escherichia coli (ATCC 25922) and S. aureus (ATCC 25923) were obtained from American Type Culture Collection (Manassas, VA, USA). Escherichia coli CCARM 1229, E. coli CCARM 1238, S. aureus CCARM 3089, S. aureus 3114, Salmonella typhimurium CCARM 8009, and S. typhimurium CCARM 8013 were obtained from the culture collection of antibiotic-resistant microbes at Seoul Women’s University, Republic of Korea. Pseudomonas aeruginosa 3547 and P. aeruginosa 4007 were resistant strains isolated from hospital patients with otitis media at Chonnam National University, Republic of Korea. The rifampin-resistant S. aureus PBEL 1 and vancomycin-resistant S. aureus PBEL 2 strains used in this study were generated from wild-type S. aureus (ATCC 25923).
(§2) Bacterial cells were incubated within culture media at 37 °C. The peptide antimicrobial activity was determined by the minimal inhibition concentration (MIC) assay. […] The samples were incubated for 18–24 h at 37 °C. After incubation, the minimum inhibitory concentrations (MICs) of the peptides were determined by measuring the absorbance at an optical density of 600 nm (OD600).

For the next series, the system named is S. aureus PBEL 2. The series can be described thus: MIC assay, drug-resistant strain. The format is cell-based. The conditions noted are these: Staphylococcus aureus, PBEL2; S. aureus PBEL 2, vancomycin-resistant (induced); peptides in DMEM supplemented with 10% FBS.
From the text: as §1, §2

Series [1] concerns S. typhimurium CCARM 8009. Kind of series: MIC assay, drug-resistant strain. The format is cell-based. The conditions noted are these: Salmonella enterica, peptides in DMEM supplemented with 10% FBS.
From the text: as §1, §2

In a further series the test system is P. aeruginosa 4007. The series can be described thus: MIC assay, drug-resistant strain. In kind it is cell-based. Conditions: Pseudomonas aeruginosa; P. aeruginosa 4007, resistant isolate from otitis media patients; peptides in DMEM supplemented with 10% FBS.
From the text: as §1, §2

A further series relates to S. aureus PBEL 1. The series can be described thus: MIC assay, drug-resistant strain. The format is cell-based. The conditions noted are these: Staphylococcus aureus, PBEL1; S. aureus PBEL 1, rifampin-resistant (induced); peptides in DMEM supplemented with 10% FBS.
From the text: as §1, §2

The next series relates to S. aureus CCARM 3114. Kind of series: MIC assay, drug-resistant strain. In kind it is cell-based. The conditions noted are these: Staphylococcus aureus, CCARM3114, peptides in DMEM supplemented with 10% FBS.
From the text: as §1, §2

The next series relates to P. aeruginosa 3547. Kind of series: MIC assay, drug-resistant strain. The format is cell-based. Conditions: Pseudomonas aeruginosa; P. aeruginosa 3547, resistant isolate from otitis media patients; peptides in DMEM supplemented with 10% FBS.
From the text: as §1, §2

For series [2], the system named is S. typhimurium CCARM 8013. Kind of series: MIC assay, drug-resistant strain. In kind it is cell-based. The conditions noted are these: Salmonella enterica, peptides in DMEM supplemented with 10% FBS.
From the text: as §1, §2

A further series concerns E. coli CCARM 1238. Kind of series: MIC assay, drug-resistant strain. The format is cell-based. Conditions: Escherichia coli, CCARM1238, peptides assayed in DMEM supplemented with 10% FBS.
From the text: as §1, §2

A further series relates to E. coli CCARM 1229. Kind of series: MIC assay, drug-resistant strain. In kind it is cell-based. Conditions: Escherichia coli, CCARM1229, peptides assayed in DMEM supplemented with 10% FBS.
From the text: as §1, §2

For series [3], the system named is PE/PG (7:3, w/w) small unilamellar vesicle (SUV) liposomes. Kind of series: Binding assay with SUV liposomes by CD. Conditions: 50 μM peptide, 300 μM SUVs, 10 mM HEPES buffer (pH 7.4), 25 °C, n = 3. The protocol: (§3) SUVs were prepared by drying of phosphatidylethanolamine (PE)/phosphatidyl glycerol (PG) (7:3, w/w) or phosphatidylcholine (PC)/sphingomyelin (SM) (2:1, w/w) under nitrogen, suspension by vortex mixing in 10 mM HEPES buffer (pH 7.4), and sonication. To prepare the SUVs, the lipid diffusions were sonicated in a bath-type sonicator for 20 min. Next, the suspensions of preparation vesicles were extruded 10 times through polycarbonate membranes ([…] pores). The concentration of SUV liposomes was determined using a standard phosphate assay. Circular dichroism (CD) spectra were recorded at 25 °C on a Jasco 810 spectropolarimeter. The peptide (50 μM) solution was added to 400 μL of 10 mM HEPES buffer or to 300 μM SUVs. At least three scans were acquired at 250 to 190 nm.

The subject of series [4] is PC/SM (2:1, w/w) small unilamellar vesicle (SUV) liposomes. The series can be described thus: Binding assay with SUV liposomes by CD. The conditions noted are these: 50 μM peptide, 300 μM SUVs, 10 mM HEPES buffer (pH 7.4), 25 °C, n = 3. On the procedure:
as §3

Series [5] can be described thus: Reverse-phase HPLC retention time (hydrophobicity). The format is physicochemical. Conditions: mean retention time, Jupiter proteo C18 column (250 × 4.6 mm, 90 Å, 4 μm), 280 nm, used by the paper as measure of hydrophobicity. On the procedure: Peptides were synthesized by using a 9-fluorenylmethoxycarbonyl (Fmoc) solid-phase method on Rink amide 4-methyl benzhydrylamine resin (Novabiochem, Darmstadt, Germany) (0.55 mmol/g) using a Liberty microwave peptide synthesizer (CEM, Matthews, NC, USA). To generate N-terminal fluorescently-labeled peptides, resin-bound peptides were treated with 20% (v/v) piperidine in dimethylformamide (DMF) to remove the Fmoc protection groups from the N-terminal amino acids. Rhodamine-SE dye was incubated with resin-bound peptide in DMF (3–4 eq.) containing 5% (v/v) diisopropylethylamine, and gently mixing for 24 h at room temperature in the dark. The resin was washed with dichloromethane (DCM). The peptides were cleaved from the corresponding resins, precipitated with ether, and extracted. The crude peptides were purified by reverse-phase preparative high-performance liquid chromatography (HPLC) on a Jupiter C18 column (250 × 21.2 mm, […], 300 Å; Phenomenex, Torrance, CA, USA) using a 0–60% acetonitrile gradient in water with 0.05% trifluoroacetic acid. The purity of the extracted peptide was then determined by analytical reversed-phase HPLC (wavelength of 280 nm) using a Jupiter proteo C18 column (250 × 4.6 mm, 90 Å, 4 μm). The molecular masses of the peptides were confirmed on a matrix-assisted laser desorption ionization mass spectrometer (Kratos Analytical, Kyoto, Japan).

The subject of a further series is S. aureus ATCC 25923. Kind of series: Resistance development assay. The format is cell-based, Staphylococcus aureus. The conditions noted are these: S. aureus ATCC 25923, 12 passages from 1/2 MIC well, DMEM supplemented with 10% fetal bovine serum, MICs in duplicate.
Series [6] has as its system sheep red blood cells (sheep RBCs). Kind of series: Hemolysis. The conditions noted are these: data overlapped with those of HPA3NT3-A2. In kind it is cell-based. The protocol: Fresh samples of sheep blood defibrinated cells (MBcell, Seoul, Korea) were centrifuged at 800× g and washed with phosphate-buffered saline (PBS) until the supernatant was clear. Serial dilutions (two-fold) of peptide prepared in PBS were plated, and sheep red blood cells (sheep RBCs) were added to a final concentration of 8% (v/v) in a 96-well plate. The samples were incubated for 1 h at 37 °C with gentle agitation and then centrifuged at 800× g for 10 min. The absorbance of the supernatant was measured at 414 nm; each measurement was performed in triplicate and the percentage hemolysis was calculated using Equation (1):% hemolysis = [(Abs414 in the peptide solution − Abs414 in PBS)/(Abs414 in 0.1% Triton-X100 − Abs414 in PBS)] × 100(1) where 100% hemolysis was defined as the absorbance of sheep RBCs containing 1% Triton X-100 and zero hemolysis was the value measured for sheep RBCs alone in PBS [10].

Series [7] shares this test system. The conditions noted are these: at 250 μM; cited from earlier work. On the procedure:
(§4) Previously, we determined the properties of HPA3NT3 as an antimicrobial peptide. This peptide has an amphipathic helical structure, strong antimicrobial activity, and cytotoxic ability at 250 μM (sheep RBCs, 68.4%; HaCaT cells, 85.1%). This peptide was designed to have low cytotoxicity at higher concentrations and was generated by substituting phenylalanine with alanine and lysine (F1A, F8A, and N13K) to enhance its antimicrobial activity by increasing the net positive charge.

Series [8] relates to HaCa T (human keratinocyte) cells. The conditions noted are these: at 250 μM; cited from earlier work. The protocol: as §4

Protocol for S. aureus ATCC 25923: Daily MICs were determined over 15 days for each agent using cells collected from the well determined as having half the MIC (1/2 MIC well). Briefly, cells from the 1/2 MIC well from the preceding day’s assay plate were resuspended and the OD600 was measured. The suspensions were then adjusted to achieve a bacterial concentration of 5 × 10^5 cfu/mL in DMEM supplemented with 10% fetal bovine serum and then mixed with each agent at the appropriate concentration. All MICs were determined in duplicate [26].

Regarding `CC1(C)S[C@@H]2[C@H](NC(=O)[C@H](N)c3ccccc3)C(=O)N2[C@H]1C(=O)O` [Amp, ampicillin], the MIC (against S. aureus CCARM 3089; against S. aureus PBEL 2; in series [1]; against P. aeruginosa 4007; in the series with S. aureus PBEL 1; against S. aureus CCARM 3114) was more than 512 µM throughout. Further, the MIC (in the series with P. aeruginosa 3547; in series [2]) was more than 512 µM each time.

Regarding `O=C(O)c1cn(C2CC2)c2cc(N3CCNCC3)c(F)cc2c1=O` [Cip, ciprofloxacin], the MIC against S. aureus CCARM 3089, in the series with S. aureus PBEL 2, against P. aeruginosa 4007, in the series with S. aureus PBEL 1, against S. aureus CCARM 3114 and against P. aeruginosa 3547 was more than 512 µM each time.

For `CC[C@H]1OC(=O)[C@H](C)[C@@H](O[C@H]2C[C@@](C)(OC)[C@@H](O)[C@H](C)O2)[C@H](C)[C@@H](O[C@@H]2O[C@H](C)C[C@H](N(C)C)[C@H]2O)[C@](C)(O)C[C@@H](C)C(=O)[C@H](C)[C@@H](O)[C@]1(C)O` [Ery, erythromycin], the MIC against S. aureus CCARM 3089 is more than 512 µM; against S. aureus PBEL 2, more than 512 µM; in [1], 256 µM (≈ 188 µg/mL); against P. aeruginosa 4007 it was more than 512 µM; in the series on S. aureus PBEL 1 it was more than 512 µM; in the series with S. aureus CCARM 3114, more than 512 µM. Also, the minimum inhibitory concentration (MIC) against E. coli CCARM 1238 is 256 µM (≈ 188 µg/mL); against P. aeruginosa 3547, more than 512 µM; against E. coli CCARM 1229, 256 µM (≈ 188 µg/mL); in series [2] it was 128 µM (≈ 93.9 µg/mL).

With `CC[C@H](C)[C@H](NC(=O)[C@@H](CCCCN)NC(=O)[C@@H](CCCCN)NC(=O)[C@H](C)NC(=O)[C@H](CC(C)C)NC(=O)[C@@H](CCCCN)NC(=O)[C@@H](CCCCN)NC(=O)[C@H](CC(C)C)NC(=O)[C@H](CCCNC(=N)N)NC(=O)[C@@H](CCCCN)NC(=O)[C@H](C)N)C(=O)N[C@@H](Cc1c[nH]c2ccccc12)C(=O)N[C@H](CCCCN)C(=O)N[C@@H](Cc1c[nH]c2ccccc12)C(=O)N[C@H](CCCCN)C(N)=O` [HPA3NT3-A2D] (HELM PEPTIDE1{A.[dK].R.L.[dK].[dK].L.A.[dK].[dK].I.W.[dK].W.[dK].[am]}$$$$V2.0; N-terminus assumed), in series [3], the “interaction with PE/PG liposome (CD)” value is “low levels of α-helical structures”. In series [4], the “interaction with PC/SM liposome (CD)” value was “low levels of α-helical structures”. In addition, the “Retention Time” value in series [5] is 11.97 min. Further, the “increase in MIC (resistance development)” value in the series with S. aureus ATCC 25923 is “no change in the MIC”. In addition, the “hemolysis against sheep RBCs (in words)” value in [6] is listed as “non-hemolysis”.

Consider `CO[C@H]1/C=C/O[C@@]2(C)Oc3c(C)c(O)c4c(O)c(c(/C=N/N5CCN(C)CC5)c(O)c4c3C2=O)NC(=O)/C(C)=C\C=C\[C@H](C)[C@H](O)[C@@H](C)[C@@H](O)[C@@H](C)[C@H](OC(C)=O)[C@@H]1C` [rifampin], for which the “increase in MIC (resistance development)” value in the series on S. aureus ATCC 25923 amounted to 8192 fold.

Turning to FKRLKKLFKKIWNWK-NH2 [HPA3NT3], in series [3], the “interaction with PE/PG liposome (CD)” value is “strongest interaction and α-helical structure”. The “interaction with PC/SM liposome (CD)” value in series [4] was “strongest interaction and α-helical structure”. In addition, the “Retention Time” value in [5] is 20.94 min. For the same molecule, the “hemolytic activity against sheep RBCs” value in series [7] is given as 68.4%. In series [8], the “toxicity against HaCaT cells” value is recorded as 85.1%.
